Data published in US20100047231A1, “Immuno-Stimulant Combination for Prophylaxis and Treatment of Hepatitis C” (priority 2005, published 2010).

Legend:
Assay type in all cases: in vivo
T1/HCVcon cells = experiment: Lythic activity of splenocytes from immunised HHD mice against T1/HCVcon cells (chromium release); conditions: 100 μg NS3 + poly(I:C) + anti-CD40, six days after immunisation, splenocytes stimulated five days with T1/HCVcon cells and IL-2 (FIG. 4)
Experimental: (§1) Groups of two mice were immunised via the i.p. route with 50 μg of anti-CD40. Four hours later, they were injected with 50 μg of poly(I:C) (i.v.) and different amounts of the antigens: NS3 protein or mixtures of NS3 with peptides (i.p.).
(§2) In order to measure the CTL responses, the splenocytes coming from the immunised animals were incubated with peptides (10 μM) for 2 h at 37° C., washed twice and cultured on 24-well plates with a confluence of 7.5×10^6 cells/well. In experiments conducted for measuring the recognition of T1/HCVcon cells, 7.5×10^6 splenocytes of HHD mice were cultured with 7.5×10^5 T1/HCVcon cells previously treated with Mitomycin C (Sigma). In all cases, two days later, 2.5 U/ml of IL-2 (Boehringer-Mannheim GmbH, Germany) was added to the wells and 5 days later the cells were recovered in order to carry out chromium release assays.
(§3) The lythic activity was measured by incubating different quantities of effector cells for 4 h with 3000 T2 target cells previously loaded with 51Cr, with and without peptide (target). […]
(§4) The specific lysis percentage was calculated according to the formula: […]
(§5) where the spontaneous lysis (measured as cpmspontaneous) corresponds to target cells incubated in the absence of effector cells, and the maximum lysis (cpmmaximum) is obtained by incubating target cells with 5% Tritonx100.

HHD mice [1] = experiment: Lythic activity of CTL (chromium release) of splenocytes from immunised HHD mice against peptide-loaded T2 target cells; conditions: 100 μg NS3 + poly(I:C) + anti-CD40, two immunisations, sixty days after the second (FIG. 5B)
Experimental: as §1, §2, §3, §4, §5

HHD mice [2] = experiment: IFN-γ production (ELISA) by splenocytes from immunised HHD mice stimulated with peptides or NS3; conditions: 100 μg NS3 + poly(I:C) + anti-CD40, two immunisations, sixty days after the second
Experimental: as §1
Splenic cells were resuspended in complete medium and plated at 8×10^5 cells/well in 0.2 ml on 96-well plates with U-shaped bottom, in the absence or presence of peptides or of the recombinant NS3 protein of the HCV.
Two days afterwards, the supernatants were collected for measuring the presence of IFN-γ by means of ELISA (BD-Pharmingen), following the manufacturer's instructions.

## NS3 protein (SEQ. ID. NO: 2): Recombinant polypeptide with 635-amino-acid complete HCV NS3 sequence and His tail, expressed in E. coli; given with poly(I:C) and anti-CD40
T1/HCVcon cells
  Lysis of T1/HCVcon cells versus T1 control cells: greater capacity to lyse T1 cells, which expressed proteins of the HCV
HHD mice [1]
  Lasting CD8+ response, lythic activity against target cells loaded with peptide 1073: capable of lysing target cells pulsed with the peptide 1073
HHD mice [2]; NS3 1 μg/ml, 48 h (FIG. 5C)
  Lasting CD4+ response, IFN-γ production on stimulation with NS3 protein: potent and lasting CD4+ responses
HHD mice [2]; peptide 1073 10 μM, 48 h (FIG. 5A)
  Lasting CD8+ response, production of IFN-γ on stimulation with peptide 1073: capable of producing large amounts of IFN-γ
